Where “and” joins values, the source holds several entries; their conditions need not be identical. Equal values may be shown once. Calls of active or inactive are those of the source.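 The calls were made as follows: active = compounds giving half or more protection of infected cells from virus-caused growth loss, again on retest; inactive = the rest.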 *1 amine or outer side, *2 acyl side, *3 side chain or, on linkers, in order; H or OH if unused. Where a SMILES comes first, the peptide text is derived from it. Bridges are numbered along the chain shown (N, C = ends). [ ]: non-standard residue; d: D form. The star is where a group is joined. Fmoc = O=C(OCC1c2ccccc2-c2ccccc21)*; X2 = O=C(C(CCCCNO[*:3])N[*:1])[*:2] Some results are limits rather than exact numbers.

This assay deals with CEM cells HIV-1 protection, formazan growth assay. As to the kind of experiment: NCI AIDS Antiviral Assay. The note with it: for IC50: measured here: growth of uninfected CEM cells. The essentials: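 CEM (human) cells, HIV-1 infected vs uninfected, 5-point dosing, formazan growth read-out. Retest threshold 50% protection.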

For `O=C(N/C(=C\c1ccccc1)C1Nc2ccccc2C(=O)O1)c1ccccc1` (configuration not stated), the EC50 was greater than 200 µM and the IC50 came out at 17.4 µM. The corresponding values for `Cc1ccc(NC2=CC(=O)C(=O)c3ccccc32)cc1` are greater than 27.5 µM and 20.4 µM. In the same order, the values of `CN1CNc2nc(N)n(C)c(=O)c2C1` are greater than 200 µM and greater than 200 µM. With `CCOC(=O)c1cc(Br)c(-c2cc(C)no2)[nH]1`, the EC50 was greater than 200 µM and the IC50 was determined as 1.48 µM. In the same order, the values of `CCn1c(=O)c2nc(SC)sc2n(-c2ccccc2)c1=O` are greater than 200 µM and greater than 200 µM. On to `Cn1ccc(C(=O)NCCOCCNC(=O)c2ccn(C)c(=O)c2O)c(O)c1=O`, for which the EC50 is greater than 50.1 µM and the IC50 is greater than 50.1 µM. For `COc1ccc(C2[C@@H](Cl)C(=O)N2c2ccc(OC)cc2)cc1` (some centres not stated), the result was inactive. With `COC1C(O)CC(=O)OC(C)C/C=C/C=C/C(OC2CCC(N(C)C)C(C)O2)C(C)CC(CC=O)C1OC1OC(C)C(OC2CC(C)(O)C(O)C(C)O2)C(N(C)C)C1O` (configuration not stated), the EC50 is greater than 200 µM and the IC50 is greater than 200 µM. As for `CN(C)c1ccc(/C=C/c2cc[n+]3cc(-c4ccccc4)sc3n2)cc1`, the EC50 is greater than 1.51 µM and the IC50 amounted to 0.324 µM.

For the compound `O=C(CN1CCNCCN(CC(=O)N2CCCCC2)CCNCC1)N1CCCCC1`, the EC50 is greater than 200 µM and the IC50 was found to be 10.5 µM.

Regarding `COc1cccc2c1cc([N+](=O)[O-])c1c(C(=O)O)cc3c(c12)OCO3`, the EC50 is greater than 200 µM and the IC50 stood at 19.1 µM. The corresponding values for `C=C[C@@H](C)[C@@H](O)c1c(O)c2c(c3c(CCC)cc(=O)oc13)OC(C)(C)C=C2` are greater than 200 µM and 10.7 µM. The corresponding values for `Nc1nc2ncn(O)c2c(=O)[nH]1` are greater than 112 µM and 0.347 µM. In the same order, the values of `CC12C=C3CC(OC(=O)c4ccccc4)CCC3(O1)c1ccccc12` (configuration not stated) are greater than 57.5 µM and 32.4 µM. As to `Cc1ccc(-n2cc([Si](C)(C)C)nn2)s1`, the EC50 was greater than 200 µM and the IC50 was found to be 123 µM. Consider `O=c1cc2oc3cc(O)c(O)cc3c(-c3ccccc3)c-2cc1O`, for which the EC50 was greater than 200 µM; the IC50 is 39.8 µM and 83.2 µM. As to `COC(=O)CCCC=C(c1cc(F)c(OC)c(C(=O)OC)c1)c1cc(F)c(OC)c(C(=O)OC)c1`, the EC50 was 1.7 µM and the IC50 amounted to 64.6 µM.

In the case of `N#CC12COC3(CCCCC3C1(C#N)C#N)OC2=N` (configuration not stated), the EC50 was greater than 200 µM and the IC50 amounted to 3.98 µM. The corresponding values for `Oc1ccc(Nc2nc(Cl)c3[nH]cnc3n2)cc1` are greater than 200 µM and 107 µM. In the same order, the values of `Cc1noc(NS(=O)(=O)c2ccc(NC(=O)c3ccccc3SC(=O)CCCC[n+]3ccccc3)cc2)c1C` are 24 µM and 53.7 µM.

Turning to `Nc1nnc(-c2ccccc2O)o1`, the EC50 is greater than 200 µM and the IC50 was 110 µM. In the same order, the values of `O=c1c2ccccc2sc2cccc(NCCCN3CCN(CCCNc4cccc5sc6ccccc6c(=O)c45)CC3)c12` are greater than 100 µM and greater than 100 µM.

In the case of `O=c1[nH]nc(-c2ccccc2)c(-c2ccccc2)c1-n1nc(-c2ccccc2)c2ccccc2c1=O`, the EC50 is greater than 10.7 µM and the IC50 is greater than 10.7 µM. For the compound `O=c1[nH]c2ccc([N+](=O)[O-])cc2nc1/C=C(\O)c1ccccc1`, the EC50 is greater than 200 µM and the IC50 was greater than 200 µM. Take `NC(=O)CNC(=O)C1CCCN1C(=O)C1CCCCNOC(=O)CCC(NC(=O)OCC2c3ccccc3-c3ccccc32)C(=O)NC(Cc2c[nH]c3ccccc23)C(=O)N1` (configuration not stated) (Fmoc-EW[X2]PG-NH2; ester 1-3; configuration not given here): the EC50 is 70.8 µM and the IC50 was greater than 100 µM. In the same order, the values of `O=C1CC2CC(CC3(CO3)C2)C1F` (configuration not stated) are greater than 200 µM and greater than 200 µM.

In the case of `O=C(O)CCC(NC(=O)c1ccc(Oc2nc3ccccc3nc2C(=O)O)cc1)C(=O)O` (configuration not stated), the EC50 was greater than 200 µM and the half-inhibitory concentration (IC50) was greater than 200 µM. Take `Cc1ccc2ccccc2c1CC1S(=O)(=O)OCCOS1(=O)=O`: the EC50 was greater than 200 µM and the IC50 amounted to 115 µM. Consider `CO/C=C/c1cc2c(cc1C(OC)OC)OCO2`, for which the result was inactive. For the compound `N#Cc1c(C#N)c(-c2ccccc2)n(-c2ccccc2)c1N`, the EC50 is greater than 200 µM and the IC50 was found to be 53.7 µM. The corresponding values for `O=C(Nc1ccc(C2=NCC(O)CN2)cc1)c1ccc(C(=O)Nc2ccc(C3=NCC(O)CN3)cc2)cc1` (configuration not stated) are 12.9 µM and greater than 200 µM. In the same order, the values of `N#Cc1cnn2c1n[n+]([O-])c1ccc(Cl)cc12` are greater than 100 µM and 7.76 µM.

Take `CC1C(NNc2ccccc2)Oc2cc3c(cc2C1c1ccccc1O)OCO3` (configuration not stated): the outcome was inactive. On to `C=CCN(N=O)C(=O)ON1C(=O)CCC1=O`, for which the EC50 was greater than 1100 µM and the IC50 was 275 µM. In the same order, the values of `CC(=O)OC1C[C@H]2C(OC(=O)c3ccccc3)C3C4(OC(C)=O)COC4C[C@H](OC(C)=O)[C@@]3(C)C(OC(C)=O)[C@H](OC(C)=O)C(=C1C)C2(C)C` (some centres not stated) are greater than 35.5 µM and greater than 35.5 µM. In the same order, the values of `COC(=O)c1nn(C(=N)c2ccc(Cl)cc2)c2c1CCC2` are greater than 813 µM and greater than 813 µM.

For the compound `CN(C)c1ccc(/C=N\N2C(=O)c3ccccc3C2=O)cc1`, the EC50 is greater than 123 µM and the IC50 was greater than 123 µM.

For the compound `CC(=O)N/N=C(\N)c1nc2c(n3nc(C)nc13)CCCC2`, the EC50 was greater than 200 µM and the IC50 came out at 91.2 µM. In the same order, the values of `COc1ccc(OC)c(/C=C/C(=O)C(C)(C)C)c1` are greater than 105 µM and 19.1 µM. In the same order, the values of `c1ccc2c(c1)c1c(n2CCOCCCN2CCCCC2)CCCC1` are greater than 200 µM and 5.37 µM. The corresponding values for `CC(C)[Si]1(C(C)C)OCC2OC(n3ccc(=O)[nH]c3=O)C([Se]c3ccccc3)C2O[Si](C(C)C)(C(C)C)O1` (configuration not stated) are greater than 200 µM and 10.7 µM. Turning to `COc1ccc(OCc2nc3cc(C(F)(F)F)ccc3nc2-c2ccccc2)cc1`, the EC50 was greater than 200 µM and the IC50 was greater than 200 µM.

Turning to `Cc1ccc(C(=O)Nc2ccc(S(=O)(=O)[O-])c3cc(S(=O)(=O)[O-])cc(S(=O)(=O)[O-])c23)cc1NC(=O)c1cccc(NC(=O)Nc2cccc(C(=O)Nc3cc(C(=O)Nc4ccc(S(=O)(=O)[O-])c5cc(S(=O)(=O)[O-])cc(S(=O)(=O)[O-])c45)ccc3C)c2)c1.[Ga]`, the EC50 is greater than 759 µM and the concentration for half-maximal inhibition (IC50) worked out at 42.7 µM. The corresponding values for `CCN(CC)C(=O)COc1cc2c(O)c3c(O)c(C)c4c(c13)C(=O)C(C)(O/C=C/C(OC)C(C)C(O)C(C)C(O)C(C)C(O)C(C)/C=C/C=C(\C)C(=O)N2)O4` (configuration not stated) are greater than 200 µM and 29.5 µM. The corresponding values for `COc1cc(/C=C2\C(=O)N(C(=O)Cc3ccccc3)N=C2C)cc(OC)c1OC` are greater than 25.1 µM and greater than 25.1 µM. As for `COC(=O)[C@@H]1C(CO)[C@H](n2cc(C)c(=O)[nH]c2=O)C1(C)C` (some centres not stated), the EC50 was greater than 437 µM and the IC50 was greater than 437 µM. As to `CC1(C)OC(COP2OCCO2)[C@H](COP2OCCO2)O1` (some centres not stated), the EC50 was greater than 200 µM and the IC50 was greater than 200 µM. Take `CCOC1CCC2C(CCC(/C=C/c3ccc(O)c4ncccc34)N2C)C1` (configuration not stated): the EC50 is greater than 28.2 µM and the IC50 stood at 4.9 µM.

On to `CN(C)CCNC(=O)c1nn(-c2ccccc2)c2c1CSc1ccccc1-2`, for which the EC50 is greater than 200 µM and the IC50 turned out to be 110 µM.

Regarding `COC(=O)/C=C(\C)CCC1SC1(C)C` (configuration not stated), the EC50 is greater than 100 µM and the concentration for half-maximal inhibition (IC50) is greater than 100 µM. For `CCCCCSSSCCCCC`, the EC50 was greater than 200 µM and the IC50 was determined as 34.7 µM. The corresponding values for `CCc1ccccc1NC(=O)C1=C(C)NC(C)=C(C(=O)Nc2ccccc2CC)C1c1cccc([N+](=O)[O-])c1` are greater than 19.1 µM and greater than 19.1 µM.

On to `COC(=O)C1=CC(=O)C(C(=O)Nc2ccc(OC)cc2)C(c2ccccc2)O1` (configuration not stated), for which the EC50 is greater than 7.08 µM and the IC50 was greater than 7.08 µM. Regarding `COC1=CC(=O)C(O)=C(CC2(C)C(C)CCC3(C)C2CCCC3(C)C)C1=O` (configuration not stated), the EC50 was greater than 95.5 µM and the 50% inhibitory concentration (IC50) is 6.46 µM. On to `O=C(O)C1c2ccccc2C(C(=O)O)c2ccccc21` (configuration not stated), for which the result was inactive. For `NC(CCC(=O)NC(CS(=O)(=O)O)C(=O)O)C(=O)O` (configuration not stated), the EC50 was greater than 603 µM and the IC50 is greater than 603 µM. Turning to `Cc1ccc2nc(CN(CCO)CCO)cc(=O)n2c1`, the EC50 was greater than 200 µM and the IC50 is greater than 200 µM. With `C=C1C2CCC3(CCC4C5(C)CCCC4(CN(CCO)C5)C3C2)C1O` (configuration not stated), the result was inactive. On to `COC(=O)C1=CCC2c3[nH]c4ccccc4c3CCN2C1` (configuration not stated), for which the EC50 was greater than 91.2 µM and the IC50 is greater than 91.2 µM. For the compound `CC(OC(C)(C)C)[C@H](NC(=O)OCC(Cl)(Cl)Cl)C(=O)O` (some centres not stated), the EC50 was greater than 200 µM and the IC50 is greater than 200 µM.

Consider `CC(C)N(C(=O)C12C3C4C5(C#N)C3C1(C#N)C5C42I)C(C)C` (configuration not stated), for which the EC50 was greater than 617 µM and the IC50 amounted to 316 µM. The corresponding values for `O=C1CCCC/C1=C/c1ccccc1` are greater than 200 µM and 12.9 µM. As to `CN(O)C1CC(=O)OC1CO[Si](C)(C)C(C)(C)C` (configuration not stated), the EC50 is greater than 200 µM and the IC50 is 51.3 µM.

With `CCCN=C(C(C)=O)N(C)C`, the EC50 was greater than 1580 µM and the IC50 came out at 871 µM.

Regarding `CC(/C=C/c1ccccc1)=Nc1ccccc1`, the EC50 is greater than 23.4 µM and the IC50 was greater than 23.4 µM. Consider `O=C(OCC(Cl)(Cl)Cl)N1CC[C@H](C2CCCCC2)C1`, for which the EC50 was greater than 200 µM and the IC50 turned out to be 50.1 µM.

Turning to `C/C(=N/NC(=S)Nc1ccc(Cl)cc1)c1cccc(/C(C)=N\NC(=S)Nc2ccc(Cl)cc2)n1`, the EC50 is greater than 200 µM and the IC50 was determined as 6.76 µM. In the case of `CC(CC(=O)Nc1ccc(NC(=O)CC(C)N=NC(N)=S)cc1)N=NC(N)=S` (configuration not stated), the EC50 was greater than 158 µM and the concentration for half-maximal inhibition (IC50) came to 102 µM.

For `O=C(CC(=O)C1CCOC1=O)C(=O)Nc1ccc(Cl)cc1` (configuration not stated), the outcome was inactive.

What is called EC50 is the concentration giving half of the maximal effect. As a reminder, the IC50 is the concentration needed to halve the response being measured. Read a low IC50 as greater potency.
